# Square brackets hold non-standard residues; d marks the D form. Peptide text beside a SMILES is read from it. MeBmt = C/C=C/C[C@@H](C)[C@@H](O)[C@H](NC)C(=O)O; NMepY = CN[C@@H](Cc1ccc(OP(=O)(O)O)cc1)C(=O)O; NMeL = CN[C@@H](CC(C)C)C(=O)O; NMeV = CN[C@H](C(=O)O)C(C)C; Abu = CC[C@H](N)C(=O)O; Sar = CNCC(=O)O
# Experiments:
# Cyclophilin A = biological target: T1, Cyclophilin A (Homo sapiens, UniProt P62937); experiment: biochemical; format: binding
# T1 construct: made in house
# Procedure: This protocol utilizes Perkin Elmers AlphaLISA technology platform to detect cyclosporine analogues by measuring the inhibition of binding of biotinylated Cyclosporin A to FLAG tagged Cyclophilin A.
# Add 20 uL of 6 nM Biotinylated CsA working stock to each well of the 96-well plate. Add 1 uL of test compound (100% DMSO) to each well of the plate using the Janus MTD head and P20 tips (except control wells). Add 1 uL of DMSO to negative control wells and 1 uL of 500 uM Cyclosporin A solution to positive control wells. In the dark, add 20 uL of combined Donor/Acceptor beads to each well. Incubate in the dark for 30 minutes at room temperature. […] Incubate in the dark for 60 minutes at room temperature.
# HeLa-Cyclophilin A cells = experiment: Biosensor cell permeability assay, cyclophilin binding compounds; format: cell-based; conditions: 72 hrs
# Procedure: This protocol utilizes a modified FKBP or cyclophilin destabilizing mutant to determine the bioactivity of FKBP binding compounds or cyclophilin binding compounds in whole cell assay.
# Plate HeLa-FKBP12 cells (for FKBP binding compounds) or HeLa-Cyclophilin A cells (for cyclophilin binding compounds) and seed overnight at 5 k/well (approximately ˜18 hrs.). Using a multi-channel pipet, take out the old media and add ˜125 ul of new media with compounds. Compounds are diluted using DMEM without Phenol Red, 10% FBS, 1× Sodium Pyruvate, 1× Glutamax. Add 125 ul of media with compound per well.
# Cell binding/permeability is calculated in fold-change (Total RFU of treated samples/total RFU of DMSO treated samples or total RFU above background (Total RFU minus total RFU of DMSO treated samples).
# T1 sequence (P62937 whole entry, species assumed): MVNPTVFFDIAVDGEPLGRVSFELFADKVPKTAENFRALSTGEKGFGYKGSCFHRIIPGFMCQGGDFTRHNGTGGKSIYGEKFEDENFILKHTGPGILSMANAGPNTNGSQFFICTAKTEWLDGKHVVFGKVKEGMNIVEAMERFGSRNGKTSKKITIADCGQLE
SMILES,IC50 (Cyclophilin A) [nM],IC50 (HeLa-Cyclophilin A cells) [nM]
C/C=C/C[C@@H](C)[C@@H](O)[C@H]1C(=O)N[C@@H](CC)C(=O)N(C)CC(=O)N(C)[C@@H](C(C)C)C(=O)N[C@@H](C(C)C)C(=O)N(C)[C@@H](CC(C)C)C(=O)N[C@@H](C)C(=O)N[C@H](C)C(=O)N(C)[C@@H](CC(C)C)C(=O)N(C)[C@@H](CC(C)C)C(=O)N(C)[C@@H](C(C)C)C(=O)N1C [C40] (cyclo([MeBmt][Abu][Sar][NMeV]V[NMeL]A[dA][NMeL][NMeL][NMeV])),< 2000,< 3000
C/C=C/C[C@@H](C)[C@@H](O)[C@H]1C(=O)N[C@@H](CC)C(=O)N(C)CC(=O)N(C)[C@@H](Cc2ccc(OP(=O)(O)O)cc2)C(=O)N[C@@H](C(C)C)C(=O)N(C)[C@@H](CC(C)C)C(=O)N[C@@H](C)C(=O)N[C@H](C)C(=O)N(C)[C@@H](CC(C)C)C(=O)N(C)[C@@H](CC(C)C)C(=O)N(C)[C@@H](C(C)C)C(=O)N1C [C41] (cyclo([MeBmt][Abu][Sar][NMepY]V[NMeL]A[dA][NMeL][NMeL][NMeV])),< 2000,> 3000
